A short description of series [1]: Heat accelerated stability assay of polypeptide solutions (40° C., pH about 7.4), reversed phase chromatography. To be noted: 40° C.; for Concentration change on 26 d / Concentration change on 7 d: pH about 7.4, 1 mg/mL; for Concentration change on 26 d / Purity change on 26 d: Day 26; for Purity change on 7 d / Purity change on 26 d: reversed phase chromatography 214 nm; for Purity change on 7 d / Concentration change on 7 d: Day 7; for Purity change on 7 d: purity on 7 d − purity on 0 d; for Purity change on 26 d: purity on 26 d − purity on 0 d. In kind it is physicochemical. The method, then:
A stability test chamber (BINDER GmbH), a 0.01 mg-readability balance (METTLER TOLEDO), a pH meter (METTLER TOLEDO), a biosafety cabinet (ESCO), T2G-II small-sized motor-driven capping machine (Changsha zhongya pharmaceutical equipment co. LTD), a high-speed refrigerated centrifuge (Eppendorf), a sterilizer cabinet (Shinva Medical), Agilent 1260 high-performance liquid chromatographer, and Sepax Bio-C18 4.6*250 mm 3 μm 200 Å reversed phase column were used.
Reagents and consumables included: ultrapure water (18.2 MΩ, self-made), acetonitrile (HPLC grade), trifluoroacetic acid (HPLC grade), sodium dihydrogen phosphate (pharmaceutical grade, Hunan Jiudian Hongyang Pharmaceutical Co., Ltd), hydrochloric acid (pharmaceutical grade, Hunan Er-Kang Pharmaceutical Co., Ltd), sodium hydroxide (Analytical Reagent grade, Hushi®, Sinopharm Chemical Reagent Co., Ltd), vials, rubber stoppers, disposable syringes, and sterile filters.
The lyophilized powder (1 mg/mL) of the polypeptide derivative prepared in accordance with the method of Example 1 was mixed with sodium dihydrogen phosphate (1.42 mg/mL) and dissolved in ultrapure water in the indicated mass-volume ratios. After adjusting pH to about 7.4 with hydrochloric acid/sodium hydroxide, the solution was filtered into a sterilized vial in a clean bench using a 0.22 μm sterile filter. The vial was then capped and placed into the stability test chamber at 40° C. Detections were made on Days 7 (7d) and 26 (26d), and during the assay, changes in the characteristics and properties of the polypeptide were observed and recorded. The sample was then centrifuged for 3 min at 10,000 rpm at 4° C., and the supernatant was transferred to a liquid phase sample vial for detecting the concentration and purity of the polypeptides using liquid phase chromatography described as below, wherein the concentration of the polypeptide=peak area/injection volume/extinction coefficient/60×flow rate, and the purity of the polypeptide=target peak area/total peak area×100%.
Conditions of the reversed phase chromatography Flow rate: 1.0 ml/min; Autosampler temperature: 15° C.; Column temperature: 25° C.; Detection wavelengths: 280 nm and 214 nm; Mobile phase A: 100% H2O+0.05% TFA; Mobile phase B: 100% ACN; and Gradient of elution listed in Table 6: […]

For series [2], the target named is T1, calcitonin receptor (hCTR) (Homo sapiens, UniProt P30988).
T1 construct: host or cells: CHO-K1/CALCR/Ga15 cells, further stably transfected with a CRE-luciferase plasmid
T1 sequence (P30988 25-474): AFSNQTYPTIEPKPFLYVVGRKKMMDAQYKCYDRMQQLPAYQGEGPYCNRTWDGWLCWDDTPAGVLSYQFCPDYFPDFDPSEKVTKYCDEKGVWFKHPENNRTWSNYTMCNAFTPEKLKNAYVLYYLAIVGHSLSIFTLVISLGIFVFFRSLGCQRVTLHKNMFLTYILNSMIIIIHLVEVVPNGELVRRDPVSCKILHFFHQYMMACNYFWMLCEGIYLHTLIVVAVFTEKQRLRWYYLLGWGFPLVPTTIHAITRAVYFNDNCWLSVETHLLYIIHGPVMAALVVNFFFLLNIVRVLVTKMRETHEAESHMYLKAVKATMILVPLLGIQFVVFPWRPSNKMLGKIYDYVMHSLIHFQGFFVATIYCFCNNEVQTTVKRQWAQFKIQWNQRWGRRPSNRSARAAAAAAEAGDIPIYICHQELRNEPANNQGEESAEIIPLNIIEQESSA
Description: Calcitonin receptor agonism, CRE-luciferase assay in stably transfected CHO-K1/CALCR/Ga15 cells. The format is cell-based. The settings on record: incubation of 24 hours; Table 4; read-out: EC50, activity against the calcitonin receptor in cells.
Description: Using the standard protocol, CHO-K1/CALCR/Ga15 cells (purchased from GenScript, with the calcitonin receptor constructed already) were transfected with a plasmid containing a luciferase expression cassette driven by multiple copies of cAMP response elements (CREs). The cells were cultured in an F12 medium containing 200 ug/mL Zeocin, 2 ug/mL puromycin, and 100 ug/mL hygromycin to afford a stably transfected calcitonin receptor/CRE-luc cell line.
(§1) To each well of a white 96-well plate was added 50 μL of the tested sample solution at a respective concentration.
The stably transfected calcitonin receptor/CRE-luc CHO cells were resuspended in the growth medium at a certain density, and 50 μL of the cell suspension was added at a density of about 20,000 cells per well to the white 96-well plate containing the tested sample solution. After incubation of 24 hours at 37° C. and 5% CO2, 100 μL of a Luciferase substrate was added to each well, incubated for 3 minutes, and finally was tested for luminescence on SpectraMax L (Molecular Devices) with the software SoftMax Pro 7.0.3 GxP. A standard curve was plotted using the fluorescent intensities for calculation of EC50.

The next series has as its target T2, amylin receptor (hAMY3R) (Homo sapiens, UniProt O60896+P30988).
T2 construct: host or cells: CHO-K1/Ga15/AMY3 cells, further stably transfected with a CRE-luciferase plasmid
T2 sequence (P30988 25-474): T1 sequence (P30988 25-474)
T2 sequence (O60896 24-148): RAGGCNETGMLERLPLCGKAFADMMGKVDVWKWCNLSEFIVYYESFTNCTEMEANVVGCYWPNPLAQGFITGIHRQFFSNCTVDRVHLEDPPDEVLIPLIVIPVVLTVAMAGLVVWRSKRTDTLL
Description: Amylin receptor agonism testing, CRE-luciferase assay in stably transfected CHO-K1/Ga15/AMY3 cells. To be noted: incubation of 24 hours; Table 3; read-out: EC50, activity against the amylin receptor in cells. The format is cell-based.

Here are results for eight compounds from patent publication US20260265305A1, “POLYPEPTIDE DERIVATIVE FOR ORAL DELIVERY” (Hangzhou Sciwind Biosciences Co., Ltd., priority 2023, published 2026).

Usually EC50 stands for the concentration that produces a half-maximal response.

Several values for one entry are separate records, joined by “and”; a condition that tells them apart may be missing. Equal entries are not always repeated. Numbered stars: 1 amine (or outer) side, 2 acyl side, 3 side chain; on linkers, the order of the positions; unused ones are H or OH. Peptide text beside a SMILES is read from it. * marks the point of attachment. C20 diacid = O=C(O)CCCCCCCCCCCCCCCCCCC(=O)*; C18 diacid = O=C(O)CCCCCCCCCCCCCCCCC(=O)*; C16 diacid = O=C(O)CCCCCCCCCCCCCCC(=O)*; γGlu = O=C(O)[C@H](CCC(=O)[*:2])N[*:1]; AEEA = NCCOCCOCC(=O)O

Description for amylin receptor (hAMY3R): The objective of this assay is to test the potency of the polypeptide derivatives in the present application on amylin and calcitonin receptors in vitro using a luciferase assay.
Using the standard protocol for construction of an amylin receptor/CRE-luc cell line, CHO-K1/Ga15/AMY3 cells (purchased from GenScript, with the calcitonin receptor and the receptor activity modifying peptide (RAMP) constructed already) were transfected with a plasmid containing a luciferase expression cassette driven by multiple copies of cAMP response elements (CREs). The cells were cultured in an F12 medium containing 200 ug/mL Zeocin, 2 ug/mL puromycin, 100 ug/mL hygromycin, and 400 ug/mL G418 to afford a stably transfected amylin receptor/CRE-luc cell line.
as §1
The stably transfected amylin receptor/CRE-luc CHO cells were resuspended in the growth medium at a certain density, and 50 μL of the cell suspension was added at a density of about 20,000 cells per well to the white 96-well plate containing the tested sample solution. After incubation of 24 hours at 37° C. and 5% CO2, 100 μL of a Luciferase substrate was added to each well, incubated for 3 minutes, and finally was tested for luminescence on SpectraMax L (Molecular Devices) with the software SoftMax Pro 7.0.3 GxP. A standard curve was plotted using the fluorescent intensities for calculation of EC50.

As to “M19: SEQ ID NO. 4 ASQLSTAVLGRLSDELHRLQDYPRTDVGSGSP-NH2, N terminus, C20 diacid + γGlu + 4 AEEAs ({C20 diacid-γGlu-AEEA-AEEA-AEEA-AEEA}-ASQLSTAVLGRLSDELHRLQDYPRTDVGSGSP-NH2)”, in series [1], the “Concentration change on 26 d” value is on record as −1.589%, the “Purity change on 7 d” value was “No change” and the “Purity change on 26 d” value was “nearly no noticeable change in purity”.
As to `CC(C)C[C@H](NC(=O)[C@H](CCCNC(=N)N)NC(=O)CNC(=O)[C@H](CC(C)C)NC(=O)[C@@H](NC(=O)[C@H](C)NC(=O)[C@@H](NC(=O)[C@H](CO)NC(=O)[C@H](CC(C)C)NC(=O)[C@H](CCC(N)=O)NC(=O)[C@H](CO)NC(=O)[C@H](C)NC(=O)CC[C@H](NC(=O)CCCCCCCCCCCCCCC(=O)O)C(=O)O)[C@@H](C)O)C(C)C)C(=O)N[C@@H](CO)C(=O)N[C@@H](CC(=O)O)C(=O)N[C@@H](CCC(=O)O)C(=O)N[C@@H](CC(C)C)C(=O)N[C@@H](Cc1c[nH]cn1)C(=O)N[C@@H](CCCNC(=N)N)C(=O)N[C@@H](CC(C)C)C(=O)N[C@@H](CCC(N)=O)C(=O)N[C@@H](CC(=O)O)C(=O)N[C@@H](Cc1ccc(O)cc1)C(=O)N1CCC[C@H]1C(=O)N[C@@H](CCCNC(=N)N)C(=O)N[C@H](C(=O)N[C@@H](CC(=O)O)C(=O)N[C@H](C(=O)NCC(=O)N[C@@H](CO)C(=O)NCC(=O)N[C@@H](CO)C(=O)N1CCC[C@H]1C(N)=O)C(C)C)[C@@H](C)O` [M9] ({C16 diacid-γGlu}-ASQLSTAVLGRLSDELHRLQDYPRTDVGSGSP-NH2), in series [1], the “Concentration change on 7 d” value is −2.280%, the “Concentration change on 26 d” value is −7.796%, the “Purity change on 7 d” value is recorded as −1.67% and the “Purity change on 26 d” value was −4.82%. Further, the EC50 in series [2] is 0.12 nM.
Turning to `CC(C)C[C@H](NC(=O)[C@H](CCCNC(=N)N)NC(=O)CNC(=O)[C@H](CC(C)C)NC(=O)[C@@H](NC(=O)[C@H](C)NC(=O)[C@@H](NC(=O)[C@H](CO)NC(=O)[C@H](CC(C)C)NC(=O)[C@H](CCC(N)=O)NC(=O)[C@H](CO)NC(=O)[C@H](C)NC(=O)[C@H](CCC(=O)O)NC(=O)CCCCCCCCCCCCCCCCCCC(=O)O)[C@@H](C)O)C(C)C)C(=O)N[C@@H](CO)C(=O)N[C@@H](CC(=O)O)C(=O)N[C@@H](CCC(=O)O)C(=O)N[C@@H](CC(C)C)C(=O)N[C@@H](Cc1c[nH]cn1)C(=O)N[C@@H](CCCNC(=N)N)C(=O)N[C@@H](CC(C)C)C(=O)N[C@@H](CCC(N)=O)C(=O)N[C@@H](CC(=O)O)C(=O)N[C@@H](Cc1ccc(O)cc1)C(=O)N1CCC[C@H]1C(=O)N[C@@H](CCCNC(=N)N)C(=O)N[C@H](C(=O)N[C@@H](CC(=O)O)C(=O)N[C@H](C(=O)NCC(=O)N[C@@H](CO)C(=O)NCC(=O)N[C@@H](CO)C(=O)N1CCC[C@H]1C(N)=O)C(C)C)[C@@H](C)O` [M10] ({C20 diacid}-EASQLSTAVLGRLSDELHRLQDYPRTDVGSGSP-NH2), in series [1], the “Concentration change on 7 d” value is listed as −2.290%, the “Concentration change on 26 d” value is −10.562%, the “Purity change on 7 d” value is on record as −1.66% and the “Purity change on 26 d” value is recorded as −5.98%.
Regarding `CC(C)C[C@H](NC(=O)[C@H](CCCNC(=N)N)NC(=O)CNC(=O)[C@H](CC(C)C)NC(=O)[C@@H](NC(=O)[C@H](C)NC(=O)[C@@H](NC(=O)[C@H](CO)NC(=O)[C@H](CC(C)C)NC(=O)[C@H](CCC(N)=O)NC(=O)[C@H](CO)NC(=O)[C@H](C)NC(=O)COCCOCCNC(=O)COCCOCCNC(=O)CC[C@H](NC(=O)CCCCCCCCCCCCCCCCC(=O)O)C(=O)O)[C@@H](C)O)C(C)C)C(=O)N[C@@H](CO)C(=O)N[C@@H](CC(=O)O)C(=O)N[C@@H](CCC(=O)O)C(=O)N[C@@H](CC(C)C)C(=O)N[C@@H](Cc1c[nH]cn1)C(=O)N[C@@H](CCCNC(=N)N)C(=O)N[C@@H](CC(C)C)C(=O)N[C@@H](CCC(N)=O)C(=O)N[C@@H](CC(=O)O)C(=O)N[C@@H](Cc1ccc(O)cc1)C(=O)N1CCC[C@H]1C(=O)N[C@@H](CCCNC(=N)N)C(=O)N[C@H](C(=O)N[C@@H](CC(=O)O)C(=O)N[C@H](C(=O)NCC(=O)N[C@@H](CO)C(=O)NCC(=O)N[C@@H](CO)C(=O)N1CCC[C@H]1C(N)=O)C(C)C)[C@@H](C)O` [M22] ({C18 diacid-γGlu-AEEA-AEEA}-ASQLSTAVLGRLSDELHRLQDYPRTDVGSGSP-NH2), the EC50 on amylin receptor (hAMY3R) amounted to 0.015 nM. In series [1], the “Concentration change on 26 d” value was −5.493%, the “Purity change on 7 d” value is 2.59% and the “Purity change on 26 d” value is −2.19%.
For the compound `CC(C)C[C@H](NC(=O)[C@H](CCCNC(=N)N)NC(=O)CNC(=O)[C@H](CC(C)C)NC(=O)[C@@H](NC(=O)[C@H](C)NC(=O)[C@@H](NC(=O)[C@H](CO)NC(=O)[C@H](CC(C)C)NC(=O)[C@H](CCC(N)=O)NC(=O)[C@H](CO)NC(=O)[C@H](C)NC(=O)COCCOCCNC(=O)COCCOCCNC(=O)COCCOCCNC(=O)COCCOCCNC(=O)COCCOCCNC(=O)COCCOCCNC(=O)COCCOCCNC(=O)COCCOCCNC(=O)CC[C@H](NC(=O)CCCCCCCCCCCCCCCCCCC(=O)O)C(=O)O)[C@@H](C)O)C(C)C)C(=O)N[C@@H](CO)C(=O)N[C@@H](CC(=O)O)C(=O)N[C@@H](CCC(=O)O)C(=O)N[C@@H](CC(C)C)C(=O)N[C@@H](Cc1c[nH]cn1)C(=O)N[C@@H](CCCNC(=N)N)C(=O)N[C@@H](CC(C)C)C(=O)N[C@@H](CCC(N)=O)C(=O)N[C@@H](CC(=O)O)C(=O)N[C@@H](Cc1ccc(O)cc1)C(=O)N1CCC[C@H]1C(=O)N[C@@H](CCCNC(=N)N)C(=O)N[C@H](C(=O)N[C@@H](CC(=O)O)C(=O)N[C@H](C(=O)NCC(=O)N[C@@H](CO)C(=O)NCC(=O)N[C@@H](CO)C(=O)N1CCC[C@H]1C(N)=O)C(C)C)[C@@H](C)O` [M21] ({C20 diacid-γGlu-AEEA-AEEA-AEEA-AEEA-AEEA-AEEA-AEEA-AEEA}-ASQLSTAVLGRLSDELHRLQDYPRTDVGSGSP-NH2), the EC50 at amylin receptor (hAMY3R) was 0.044 nM. Further, in series [1], the “Concentration change on 7 d” value is reported as −1.388%, the “Concentration change on 26 d” value is −4.522%, the “Purity change on 7 d” value is listed as −1.66% and the “Purity change on 26 d” value was −2.01%.
On to “M20: SEQ ID NO. 4 ASQLSTAVLGRLSDELHRLQDYPRTDVGSGSP-NH2, N terminus, C20 diacid + γGlu + 6 AEEAs ({C20 diacid-γGlu-AEEA-AEEA-AEEA-AEEA-AEEA-AEEA}-ASQLSTAVLGRLSDELHRLQDYPRTDVGSGSP-NH2)”, for which, in series [1], the “Concentration change on 7 d” value is “No change (concentration change of less than 1% (denoted as “no change”))”, the “Concentration change on 26 d” value is given as −3.662%, the “Purity change on 7 d” value is listed as “No change” and the “Purity change on 26 d” value is on record as −1.59%.
“H-ASQLSTAVLGRLSQELHRLQDYPRTDVGSGSP-NH2 [M5]”: on amylin receptor (hAMY3R), the EC50 was 0.033 nM.
As to “D2: SEQ ID NO. 5 CSNLSTCVLGKLSQELHKLQTYPRTNTGSGTP-NH2, no modification, no fatty acid [reference compound]”, the “Concentration change on 7 d” value in series [1] was −40% and −40.064%.
